Assay results as given in ChEMBL document CHEMBL4706528, “The design, synthesis and anti-tumor mechanism study of new androgen receptor degrader” (Eur J Med Chem, 2020).
Calls of active or inactive are those of the source. No cut-off for these calls is given here.

Experiments:
[1] = target: Transmembrane protease serine 2 (Homo sapiens) (UniProt O15393); assay: Induction of downregulation of TMPRSS2 (unknown orgin) human LNCaP cells at 2 uM after 24 hrs by Western blot analysis
LNCaP [2] = assay: Induction of cell cycle arrest in human LNCaP cells assessed as accumulation at S phase at 2 micromol/L after 24 hrs by RNase A/PI-staining based flow cytometric analysis (reference value: 20.69%); assay type: functional; details: dose 2 µmol/L, at 2 µM
LNCaP [3] = assay: Induction of cell cycle arrest in human LNCaP cells assessed as accumulation at S phase at 10 micromol/L after 24 hrs by RNase A/PI-staining based flow cytometric analysis (reference value: 20.69%); assay type: functional; details: dose 10 µmol/L, at 10 µM
[4] = target: Transmembrane protease serine 2 (Homo sapiens) (UniProt O15393); assay: Induction of downregulation of TMPRSS2 (unknown orgin) human LNCaP cells at 1 uM after 24 hrs by Western blot analysis
[5] = target: Prostate-specific antigen (Homo sapiens) (UniProt P07288); assay: Induction of downregulation of PSA (unknown orgin) human LNCaP cells at 2 uM after 24 hrs by Western blot analysis
[6] = target: T1, Androgen receptor (Homo sapiens) (UniProt P10275); assay: Selective androgen receptor degradation activity at androgen receptor in human LNCaP cells assessed as down regulation of protein level at 2 uM after 24 hrs by Western blot analysis; assay type: cell-based
T1 sequence (whole entry): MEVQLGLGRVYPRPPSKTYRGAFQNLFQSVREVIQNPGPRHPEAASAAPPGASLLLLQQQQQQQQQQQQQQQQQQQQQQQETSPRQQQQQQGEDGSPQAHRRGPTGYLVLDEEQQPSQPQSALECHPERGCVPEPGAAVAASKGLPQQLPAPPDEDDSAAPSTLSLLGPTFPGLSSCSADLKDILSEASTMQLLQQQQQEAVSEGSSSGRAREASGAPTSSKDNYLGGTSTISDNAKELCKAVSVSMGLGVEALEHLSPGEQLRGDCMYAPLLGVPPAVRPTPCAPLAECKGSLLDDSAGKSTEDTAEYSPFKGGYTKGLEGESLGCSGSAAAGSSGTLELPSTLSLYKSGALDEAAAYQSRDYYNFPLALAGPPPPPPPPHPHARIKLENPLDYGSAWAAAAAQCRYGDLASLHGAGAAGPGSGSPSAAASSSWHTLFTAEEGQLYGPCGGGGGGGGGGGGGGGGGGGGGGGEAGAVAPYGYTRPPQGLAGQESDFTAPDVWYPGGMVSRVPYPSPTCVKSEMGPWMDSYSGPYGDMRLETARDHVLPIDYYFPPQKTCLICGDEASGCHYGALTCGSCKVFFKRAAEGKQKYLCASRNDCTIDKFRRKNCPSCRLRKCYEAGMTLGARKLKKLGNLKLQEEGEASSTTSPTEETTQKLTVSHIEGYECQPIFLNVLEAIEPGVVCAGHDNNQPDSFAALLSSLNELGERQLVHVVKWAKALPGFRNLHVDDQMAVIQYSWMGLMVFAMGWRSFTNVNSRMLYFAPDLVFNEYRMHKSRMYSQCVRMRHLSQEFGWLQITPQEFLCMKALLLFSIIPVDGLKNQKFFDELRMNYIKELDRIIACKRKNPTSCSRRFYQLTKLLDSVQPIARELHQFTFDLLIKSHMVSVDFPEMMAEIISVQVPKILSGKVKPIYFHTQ

LNCaP [7] = assay: Induction of apoptosis in human LNCaP cells assessed as necrotic cells level at 10 micromol/L incubated for 24 hrs by Annexin V/PI staining staining based flow cytometry (reference value: 0.694%); assay type: functional; details: dose 10 µmol/L, at 10 µM
LNCaP [8] = assay: Antiproliferative activity against androgen-positive human LNCaP cells assessed as cell growth inhibition measured after 72 hrs by SRB assay; assay type: functional, cell-based
[9] = target: Prostate-specific antigen (Homo sapiens) (UniProt P07288); assay: Induction of downregulation of PSA (unknown orgin) human LNCaP cells at 1 uM after 24 hrs by Western blot analysis
LNCaP [10] = assay: Induction of apoptosis in human LNCaP cells assessed as total apoptotic cells at 10 uM incubated for 24 hrs by Annexin V/PI staining staining based flow cytometry (reference value: 2.76%); assay type: functional
LNCaP [11] = assay: Induction of cell cycle arrest in human LNCaP cells assessed as accumulation at S phase at 1 micromol/L after 24 hrs by RNase A/PI-staining based flow cytometric analysis (reference value: 20.69%); assay type: functional; details: dose 1 µmol/L, at 1 µM
PC-3 = assay: Antiproliferative activity against androgen-negative human PC-3 cells assessed as cell growth inhibition measured after 72 hrs by SRB assay; assay type: functional, cell-based; details: PC-3, 72 h
LNCaP [12] = assay: Induction of apoptosis in human LNCaP cells assessed as viable cells level at 1 micromol/L incubated for 24 hrs by Annexin V/PI staining staining based flow cytometry (reference value: 96.3%); assay type: functional; details: dose 1 µmol/L, at 1 µM
SGC-7901 = assay: Antiproliferative activity against androgen-positive human SGC-7901 cells assessed as cell growth inhibition measured after 72 hrs by SRB assay; assay type: functional, cell-based; details: SGC-7901, 72 h
LNCaP [13] = assay: Induction of apoptosis in human LNCaP cells assessed as viable cells level at 2 micromol/L incubated for 24 hrs by Annexin V/PI staining staining based flow cytometry (reference value: 96.3%); assay type: functional; details: dose 2 µmol/L, at 2 µM
[14] = target: T1, Androgen receptor (Homo sapiens); assay: Selective androgen receptor degradation activity at androgen receptor in human LNCaP cells assessed as down regulation of protein level at 10 uM after 24 hrs by Western blot analysis; assay type: cell-based
LNCaP [15] = assay: Induction of cell cycle arrest in human LNCaP cells assessed as accumulation at G2 phase at 2 micromol/L after 24 hrs by RNase A/PI-staining based flow cytometric analysis (reference value: 20.87%); assay type: functional; details: dose 2 µmol/L, at 2 µM
[16] = target: Transmembrane protease serine 2 (Homo sapiens) (UniProt O15393); assay: Induction of downregulation of TMPRSS2 (unknown orgin) human LNCaP cells at 10 uM after 24 hrs by Western blot analysis
MCF7 = assay: Antiproliferative activity against androgen-positive human MCF7 cells assessed as cell growth inhibition measured after 72 hrs by SRB assay; assay type: functional, cell-based; details: MCF7, 72 h
LNCaP [17] = assay: Induction of cell cycle arrest in human LNCaP cells assessed as accumulation at G2 phase at 10 micromol/L after 24 hrs by RNase A/PI-staining based flow cytometric analysis (reference value: 20.87%); assay type: functional; details: dose 10 µmol/L, at 10 µM
[18] = target: Prostate-specific antigen (Homo sapiens) (UniProt P07288); assay: Induction of downregulation of PSA (unknown orgin) human LNCaP cells at 10 uM after 24 hrs by Western blot analysis
LNCaP [19] = assay: Induction of apoptosis in human LNCaP cells assessed as viable cells level at 10 micromol/L incubated for 24 hrs by Annexin V/PI staining staining based flow cytometry (reference value: 96.3%); assay type: functional; details: dose 10 µmol/L, at 10 µM
[20] = target: T1, Androgen receptor (Homo sapiens); assay: Selective androgen receptor degradation activity at androgen receptor in human LNCaP cells assessed as down regulation of protein level at 10 uM after 24 hrs in presence of MG132 by Western blot analysis; assay type: cell-based
LNCaP [21] = assay: Induction of cell cycle arrest in human LNCaP cells assessed as accumulation at G2 phase at 1 micromol/L after 24 hrs by RNase A/PI-staining based flow cytometric analysis (reference value: 20.87%); assay type: functional; details: dose 1 µmol/L, at 1 µM

Sequence of Transmembrane protease serine 2 (Homo sapiens) (O15393 1-255 limits assumed): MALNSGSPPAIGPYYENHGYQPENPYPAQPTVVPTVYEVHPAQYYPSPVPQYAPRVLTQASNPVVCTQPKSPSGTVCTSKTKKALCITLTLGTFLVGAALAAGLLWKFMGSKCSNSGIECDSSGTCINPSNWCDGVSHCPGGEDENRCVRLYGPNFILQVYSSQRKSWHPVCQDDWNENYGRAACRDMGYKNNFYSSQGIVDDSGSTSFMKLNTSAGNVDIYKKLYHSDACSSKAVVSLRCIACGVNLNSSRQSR
Sequence of Transmembrane protease serine 2 (Homo sapiens) (O15393 256-492 limits assumed): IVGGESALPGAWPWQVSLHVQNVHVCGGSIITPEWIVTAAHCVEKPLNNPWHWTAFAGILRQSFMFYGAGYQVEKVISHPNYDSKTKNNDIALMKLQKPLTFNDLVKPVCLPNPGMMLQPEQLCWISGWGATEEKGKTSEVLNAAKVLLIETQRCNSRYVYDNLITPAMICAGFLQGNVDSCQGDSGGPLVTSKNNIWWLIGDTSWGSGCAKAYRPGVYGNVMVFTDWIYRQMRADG
Sequence of Prostate-specific antigen (Homo sapiens) (P07288 whole entry, looked up): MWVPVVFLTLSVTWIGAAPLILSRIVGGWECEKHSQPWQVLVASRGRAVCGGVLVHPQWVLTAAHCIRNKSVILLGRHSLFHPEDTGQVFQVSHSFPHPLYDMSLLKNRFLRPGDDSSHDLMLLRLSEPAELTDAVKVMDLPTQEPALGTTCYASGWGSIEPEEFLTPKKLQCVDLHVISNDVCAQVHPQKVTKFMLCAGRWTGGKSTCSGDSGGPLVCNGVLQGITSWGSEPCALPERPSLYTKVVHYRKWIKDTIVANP

With CC1(C)C(=O)N(c2ccc(C#N)c(C(F)(F)F)c2)C(=S)N1CCCCCn1cc(COCCOCCOC(=O)CC23CC4CC(CC(C4)C2)C3)nn1 the Activity [1] was “Active”, the Activity (LNCaP [2]) was 12.65% and the Activity (LNCaP [3]) was 16.11%. The Activity [4] was “Active”, the Activity [5] was “Active” and the Activity [6] was “Active”. The Activity (LNCaP [7]) was 0.024%, the IC50 (LNCaP [8]) was 1.75 µM and the Activity [9] was “Active”. The Activity (LNCaP [10]) was 19.22%, the Activity (LNCaP [11]) was 19.84% and the IC50 (PC-3) was over 80 µM. It also gave an Activity (LNCaP [12]) of 96.1%, an IC50 (SGC-7901) of 6.93 µM and an Activity (LNCaP [13]) of 96.1%. For the same molecule, the Activity [14] was “Active”, the Activity (LNCaP [15]) was 8.9% and the Activity [16] was “Active”. The IC50 (MCF7) was 50.5 µM, the Activity (LNCaP [17]) was 6.4% and the Activity [18] was “Active”. The Activity (LNCaP [19]) was 79%, the Activity [20] was “Active” and the Activity (LNCaP [21]) was 20.07%.
